Reference: patent US20130251822A1, “BIOCIDAL ALDEHYDE COMPOSITION” (priority 2011, published 2013)

Assays:
Pseudomonas aeruginosa = assay: chlorine dioxide (ClO2) and TTPC versus Pseudomonas aeruginosa, log reduction; assay type: cell-based; details: 10^5 ml
Procedure: A test with chlorine dioxide (ClO2) and TTPC versus Pseudomonas aeruginosa was performed at 10^5 ml with ClO2 of 10 ppm. This alone gave a 1 log reduction in 30 min exposure. TTPC alone at 50 ppm gave a 2 log reduction. The combination of ClO2 and TTPC of 5ppm and 10 ppm gave a 5 log reduction in 30 min.

[1] = cited from earlier work
[2] = test system: sulfur reducing bacteria (SRB); assay: efficacy on sulfur reducing bacteria; assay type: cell-based
Excerpt: (§1) As such there is actually a slight increase in planktonic microbes which are more susceptible to biocide/TTPC effects. Individual biocides affect the physiology of the cell quite differently. […] This is an example of enhanced […]. The importance of the environmental parameter cannot be underestimated based upon the foregoing results. TTPC has a similar margin of exposure as the quats used for killing of aerobic organisms. […] The minimum inhibitory concentration (MIC) for the TTPC usage is 50-500 ppm. Therefore it is safe regarding corrosiveness, an important facet in instrument sterilization. […] The faster cidal action is due basically to the chemistry difference between amine quats and phosphonium salts. The ammonium quats have longer alkyl chains. Instead of amine the difference is a phosphonium ion but also importantly is the alkyl chain length. It has been determined that there is an optimal length for anti-bacterial effectiveness. It was dependent upon chain length and attachment moieties. […] Usually the longer chain was better but not in these cases. […] TTPC did. There are great differences between Gram + and Gram − bacteria in their cell walls. […] The Gram − wall is complicated. It has in addition to the wall of G+ an outer membrane of lipopolysaccharide and phospholipids that protects the cell.

[3] = effective kill time based upon log reduction, TTPC versus dual chain quaternary ammonium; assay type: cell-based; details: TTPC alone
Procedure: (§2) When TTPC was added to the core glutaraldehyde or OPA as a substitute for dual chain quaternary ammonium the effective kill time was twice as fast (2×) based upon log reduction. Similarly, the TTPC reduced the effective kill time of acid-producing bacteria (APB) by almost 50%. Although the kill speed of TTPC alone was 20% slower than the glut/quat formula of copending U.S. patent application Ser. No. 12/584,648, when incorporated with glutaraldehyde as a substitute for dual chain quaternary ammonium the kill time […] to four times faster, evidencing the synergism of the present combination.

[4] = test system: MRSA, B. subtillis, E coli, pseudomonas aeruginosa, candida; assay: kill of test microorganisms in allotted time of 30 minutes; assay type: cell-based
Excerpt: as §1

[5] = test system: acid-producing bacteria (APB); assay: effective kill time of acid-producing bacteria; assay type: cell-based
Procedure: as §2

[6] = effectiveness based upon a 5 log reduction in oil frac water; assay type: cell-based
Excerpt: as §1

[7] = minimum inhibitory concentration (MIC); assay type: cell-based
Excerpt: as §1

[O][Cl+][O-] [ClO2, chlorine dioxide]
log reduction (Pseudomonas aeruginosa; ClO2 of 10 ppm alone, 30 min exposure): 1 log reduction

O=Cc1ccccc1C=O [OPA, orthophthalaldehyde]
disinfection time ([1]; high level disinfectant, 20-22 degrees C.): twelve

CCCCCCCCCCCCCC[P+](CCCC)(CCCC)CCCC.[Cl-] [TTPC, tributyl tetradecyl phosphonium chloride]
log reduction (Pseudomonas aeruginosa; TTPC alone at 50 ppm): 2 log reduction
efficacy on sulfur reducing bacteria (SRB) [2]: almost equally effective
kill speed slower than the glut/quat formula [3]: 20%
kill of all the test bacteria in the allotted time [4]: did
reduction of effective kill time [5]: ~50%
effectiveness relative to original glut/quat formula [6]: 2 ×
minimum inhibitory concentration (MIC) [7]: 50-500 ppm

O=CCCCC=O [glutaraldehyde, Glutaraldehyde]
residence time for disinfection ([1]; controlled temperature from 20 C to 25-30 C): 45 to 90 min
